According to patent publication US12077503B2, “Substituted cyclic amides and their use as herbicides” (FMC CORPORATION, priority 2015, dated 2024):

Legend:
Format in all cases: in vivo
[1] = test system: barnyardgrass (Echinochloa crus-galli); assay: Test G Pre-Emergence Protocol; conditions: Echinochloa crus-galli, pre-emergence, 312 h, evaluated after 13 days; for pest or weed control at 15.625 g/ha: 15.625 g ai/ha; for pest or weed control at 15.625 g/ha / pest or weed control at 250 g/ha: read-out: Barnyardgrass damage rating (100=total damage to plant; 0=no damage to plant); for pest or weed control at 62.5 g/ha: 62.5 g ai/ha, 100=total damage to plant, 0=no damage to plant, read-out: Barnyardgrass damage rating; for pest or weed control at 250 g/ha: 250 g ai/ha
Summary of the method: (§1)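 Under a 24/16° C day/night regime with 14 h light and 65% humidity, sown pots were sprayed after one day with compound (15.625, 62.5 or 250 g/ha; 50:50 acetone/water, 0.5% Tween 20). Damage was assessed visually 13 days later, 0 to 100.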

[2] = test system: redroot pigweed (Amaranthus retroflexus); assay: Test G Pre-Emergence Protocol; conditions: Amaranthus retroflexus, pre-emergence, 312 h, evaluated after 13 days; for pest or weed control at 15.625 g/ha: 15.625 g ai/ha; for pest or weed control at 15.625 g/ha / pest or weed control at 250 g/ha: read-out: Pigweed, Redroot damage rating (100=total damage to plant; 0=no damage to plant); for pest or weed control at 62.5 g/ha: 62.5 g ai/ha, 100=total damage to plant, 0=no damage to plant, read-out: Pigweed, Redroot damage rating; for pest or weed control at 250 g/ha: 250 g ai/ha
Summary of the method: as §1

[3] = test system: giant foxtail (Setaria faberi); assay: Test G Pre-Emergence Protocol; conditions: Setaria faberi, pre-emergence, 312 h, evaluated after 13 days; for pest or weed control at 15.625 g/ha: 15.625 g ai/ha; for pest or weed control at 15.625 g/ha / pest or weed control at 250 g/ha: read-out: Foxtail, Giant damage rating (100=total damage to plant; 0=no damage to plant); for pest or weed control at 62.5 g/ha: 62.5 g ai/ha, 100=total damage to plant, 0=no damage to plant, read-out: Foxtail, Giant damage rating; for pest or weed control at 250 g/ha: 250 g ai/ha
Summary of the method: as §1

corn (Zea mays) [4] = assay: Test G Pre-Emergence Protocol; conditions: Zea mays, pre-emergence, 312 h, evaluated after 13 days; for plant injury at 15.625 g/ha: 15.625 g ai/ha; for plant injury at 15.625 g/ha / plant injury at 250 g/ha: read-out: Corn damage rating (100=total damage to plant; 0=no damage to plant); for plant injury at 62.5 g/ha: 62.5 g ai/ha, 100=total damage to plant, 0=no damage to plant, read-out: Corn damage rating; for plant injury at 250 g/ha: 250 g ai/ha
Summary of the method: as §1

[5] = test system: velvetleaf (Abutilon theophrasti); assay: Test G Pre-Emergence Protocol; conditions: Abutilon theophrasti, pre-emergence, 312 h, evaluated after 13 days; for pest or weed control at 15.625 g/ha: 15.625 g ai/ha; for pest or weed control at 15.625 g/ha / pest or weed control at 250 g/ha: read-out: Velvetleaf damage rating (100=total damage to plant; 0=no damage to plant); for pest or weed control at 62.5 g/ha: 62.5 g ai/ha, 100=total damage to plant, 0=no damage to plant, read-out: Velvetleaf damage rating; for pest or weed control at 250 g/ha: 250 g ai/ha
Summary of the method: as §1

[6] = test system: ivy-leaved morning glory (Ipomoea hederacea); assay: Test G Pre-Emergence Protocol; conditions: Ipomoea, pre-emergence, 312 h, evaluated after 13 days; for pest or weed control at 62.5 g/ha: 62.5 g ai/ha, 100=total damage to plant, 0=no damage to plant, read-out: Morningglory, Ivy-leaved damage rating; for pest or weed control at 250 g/ha: 250 g ai/ha
Summary of the method: as §1

[7] = test system: barnyardgrass (Echinochloa crus-galli); assay: Test G Post-Emergence Protocol; conditions: Echinochloa crus-galli, post-emergence, 312 h, read-out: Barnyardgrass damage rating; for pest or weed control at 15.625 g/ha: 15.625 g ai/ha, evaluated after 13 days (100=total damage to plant; 0=no damage to plant); for pest or weed control at 62.5 g/ha: 62.5 g ai/ha; for pest or weed control at 62.5 g/ha / pest or weed control at 250 g/ha: evaluated after 13 days, 100=total damage to plant, 0=no damage to plant; for pest or weed control at 250 g/ha: 250 g ai/ha
Summary of the method: (§2)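 Seedlings grown 8 days in soil in a glasshouse (24/16 °C day/night, 14 h light, 65% humidity) were sprayed post-emergence with compound in acetone/water 50:50 plus 0.5% Tween 20 at 15.625, 62.5 or 250 g/ha. Damage was scored after 13 days on a 0–100 scale (100 = total damage).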

[8] = test system: redroot pigweed (Amaranthus retroflexus); assay: Test G Post-Emergence Protocol; conditions: Amaranthus retroflexus, post-emergence, 312 h, read-out: Pigweed, Redroot damage rating; for pest or weed control at 15.625 g/ha: 15.625 g ai/ha, evaluated after 13 days (100=total damage to plant; 0=no damage to plant); for pest or weed control at 62.5 g/ha: 62.5 g ai/ha; for pest or weed control at 62.5 g/ha / pest or weed control at 250 g/ha: evaluated after 13 days, 100=total damage to plant, 0=no damage to plant; for pest or weed control at 250 g/ha: 250 g ai/ha
Summary of the method: as §2

[9] = test system: giant foxtail (Setaria faberi); assay: Test G Post-Emergence Protocol; conditions: Setaria faberi, post-emergence, 312 h, read-out: Foxtail, Giant damage rating; for pest or weed control at 15.625 g/ha: 15.625 g ai/ha, evaluated after 13 days (100=total damage to plant; 0=no damage to plant); for pest or weed control at 62.5 g/ha: 62.5 g ai/ha; for pest or weed control at 62.5 g/ha / pest or weed control at 250 g/ha: evaluated after 13 days, 100=total damage to plant, 0=no damage to plant; for pest or weed control at 250 g/ha: 250 g ai/ha
Summary of the method: as §2

corn (Zea mays) [10] = assay: Test G Post-Emergence Protocol; conditions: Zea mays, post-emergence, 312 h, read-out: Corn damage rating; for plant injury at 15.625 g/ha: 15.625 g ai/ha, evaluated after 13 days (100=total damage to plant; 0=no damage to plant); for plant injury at 62.5 g/ha: 62.5 g ai/ha; for plant injury at 62.5 g/ha / plant injury at 250 g/ha: evaluated after 13 days, 100=total damage to plant, 0=no damage to plant; for plant injury at 250 g/ha: 250 g ai/ha
Summary of the method: as §2

[11] = test system: velvetleaf (Abutilon theophrasti); assay: Test G Post-Emergence Protocol; conditions: Abutilon theophrasti, post-emergence, 312 h, read-out: Velvetleaf damage rating; for pest or weed control at 15.625 g/ha: 15.625 g ai/ha, evaluated after 13 days (100=total damage to plant; 0=no damage to plant); for pest or weed control at 62.5 g/ha: 62.5 g ai/ha; for pest or weed control at 62.5 g/ha / pest or weed control at 250 g/ha: evaluated after 13 days, 100=total damage to plant, 0=no damage to plant; for pest or weed control at 250 g/ha: 250 g ai/ha
Summary of the method: as §2

[12] = test system: ivy-leaved morning glory (Ipomoea hederacea); assay: Test G Post-Emergence Protocol; conditions: Ipomoea, post-emergence, 312 h, read-out: Morningglory, Ivy-leaved damage rating; for pest or weed control at 15.625 g/ha: 15.625 g ai/ha, evaluated after 13 days (100=total damage to plant; 0=no damage to plant); for pest or weed control at 62.5 g/ha: 62.5 g ai/ha; for pest or weed control at 62.5 g/ha / pest or weed control at 250 g/ha: evaluated after 13 days, 100=total damage to plant, 0=no damage to plant; for pest or weed control at 250 g/ha: 250 g ai/ha
Summary of the method: as §2

[13] = read-out: Morningglory, Ivy-leaved damage rating (100=total damage to plant; 0=no damage to plant)

Row | Compound | pest or weed control at 15.625 g/ha [1] [%] | pest or weed control at 62.5 g/ha [1] [%] | pest or weed control at 250 g/ha [1] [%] | pest or weed control at 15.625 g/ha [2] [%] | pest or weed control at 62.5 g/ha [2] [%] | pest or weed control at 250 g/ha [2] [%] | pest or weed control at 15.625 g/ha [3] [%] | pest or weed control at 62.5 g/ha [3] [%] | pest or weed control at 250 g/ha [3] [%] | plant injury at 15.625 g/ha (corn (Zea mays) [4]) [%] | plant injury at 62.5 g/ha (corn (Zea mays) [4]) [%] | plant injury at 250 g/ha (corn (Zea mays) [4]) [%] | pest or weed control at 15.625 g/ha [5] [%] | pest or weed control at 62.5 g/ha [5] [%] | pest or weed control at 250 g/ha [5] [%] | pest or weed control at 62.5 g/ha [6] [%] | pest or weed control at 250 g/ha [6, 13] [%] | pest or weed control at 15.625 g/ha [7] [%] | pest or weed control at 62.5 g/ha [7] [%] | pest or weed control at 250 g/ha [7] [%] | also measured
1 | CCOc1cc(C2CN(C)C(=O)C2C(=O)Nc2cccc(F)c2F)ccc1OC (centres unmarked) [Compound 1719] | 30 | 70 | 90 | 0 | 0 | 20 | 70 | 90 | 90 | 0 | 10 | 60 | 0 | 0 | 0 | 0 | 0 | 0 | 60 | 80 | pest or weed control at 15.625 g/ha [8]: 0%; pest or weed control at 62.5 g/ha [8]: 0%; pest or weed control at 250 g/ha [8]: 0%; pest or weed control at 15.625 g/ha [9]: 60%; pest or weed control at 62.5 g/ha [9]: 80%; pest or weed control at 250 g/ha [9]: 80%; plant injury at 15.625 g/ha (corn (Zea mays) [10]): 0%; plant injury at 62.5 g/ha (corn (Zea mays) [10]): 0%; plant injury at 250 g/ha (corn (Zea mays) [10]): 60%; pest or weed control at 15.625 g/ha [11]: 0%; pest or weed control at 62.5 g/ha [11]: 0%; pest or weed control at 250 g/ha [11]: 0%; pest or weed control at 15.625 g/ha [12]: 0%; pest or weed control at 62.5 g/ha [12]: 10%; pest or weed control at 250 g/ha [12]: 20%
2 | CN1C[C@H](c2ccc(C(F)(F)F)cc2)[C@@H](C(=O)Nc2ccc[n+]([O-])c2F)C1=O (racemic) [Compound 1815] | 0 | 0 | 0 | 0 | 0 | 0 | 0 | 0 | 40 | 0 | 0 | 0 | 0 | 0 | 0 | 0 | 0 | 0 | 0 | 0 | pest or weed control at 15.625 g/ha ([6]; 15.625 g ai/ha, read-out: Morningglory, Ivy-leaved damage rating (100=total damage to plant; 0=no damage to plant)): 0%; pest or weed control at 15.625 g/ha [8]: 0%; pest or weed control at 62.5 g/ha [8]: 0%; pest or weed control at 250 g/ha [8]: 0%; pest or weed control at 15.625 g/ha [9]: 0%; pest or weed control at 62.5 g/ha [9]: 0%; pest or weed control at 250 g/ha [9]: 10%; plant injury at 15.625 g/ha (corn (Zea mays) [10]): 0%; plant injury at 62.5 g/ha (corn (Zea mays) [10]): 0%; plant injury at 250 g/ha (corn (Zea mays) [10]): 0%; pest or weed control at 15.625 g/ha [11]: 0%; pest or weed control at 62.5 g/ha [11]: 0%; pest or weed control at 250 g/ha [11]: 0%; pest or weed control at 15.625 g/ha [12]: 0%; pest or weed control at 62.5 g/ha [12]: 0%; pest or weed control at 250 g/ha [12]: 0%
